This assay has as its system P. falciparum 3D7 growth, pLDH absorbance. Nature of the assay: P. falciparum 3D7 growth inhibition, dose response, strain 3D7 (AID 2305).

Experimental findings from PubChem BioAssay AID2305 (GlaxoSmithKline (GSK), 2010) are described below.

pIC50: −log10 of the molar value.

On to `CCc1ccc2nc(-c3ccc(F)cc3)nc(SCC(=O)Nc3sc(C)c(C)c3C#N)c2c1`, for which the pIC50 – broadly, the negative decadic logarithm of the IC50, by convention in mol/L – is 6.19.
As for `CC(C)C[C@H](Nc1ccc(C#N)c2ccccc12)C(=O)N[C@@H]1CCCc2ccccc21`, the pIC50 was 6.12.
Turning to `O=C(/C=C/c1ccc2ccccc2c1)NC1CCC(CN2CCC(c3c[nH]c4ccccc34)CC2)CC1` (centres undefined), the pIC50 is 6.14.
Turning to `c1ccc(CCNc2nc(NCC(c3ccccc3)c3ccccc3)c3[nH]cnc3n2)cc1`, the pIC50 was 6.21.
`COc1cc(Br)ccc1N1CCN(CCCCNC(=O)c2ccc(NC(=O)c3ccc(Cl)cc3)cc2)CC1` had a negative logarithm of the IC50 (pIC50) of 6.12.
The molecule `CCOc1cc(C(=O)Nc2ccc(-c3nc4ccccc4[nH]3)cc2)cc(OCC)c1OCC` gave a pIC50 of 6.64. This pIC50 is 0.52 log units higher than that of the molecule before.
The molecule `Cc1cc(N[C@@H](Cc2ccccc2)C(=O)NCCc2ccccc2)nc(NCCc2cccs2)n1` gave a pIC50 of 6.15.
Then `Cc1ccc(-c2nc3ccc(C(=O)NC4CCC(N5CCCc6ccc(C#N)cc6C5)CC4)cc3[nH]2)cc1` (centres undefined), with 5.87.
Molecule `O=C(Nc1nc(-c2cc(F)ccc2F)cs1)c1cncc(Br)c1` gave a pIC50 of 5.97.
With `CCOc1ccc2c(NN=Cc3cccc(Cl)c3)cc(C)nc2c1`, the pIC50 is 6.07.
`COc1ccc(NC(=O)c2ccc(-c3nc(-c4ccccc4)cs3)cc2)cc1N1CCN(C)CC1`: the pIC50 was 6.00.
Molecule `Nc1nc(N)c(-c2ccccc2)c(=O)[nH]1` showed a pIC50 of 6.00.
`Cc1c(C)c2c(c(C)c1O)CC[C@](C)(C(=O)N1CCC(CN3CCC(c4c[nH]c5ccccc45)CC3)CC1)O2`: the pIC50 is 6.14.
`O=C(NCc1ccc(C(=O)NC2CCCCC2)cc1)c1ccc(O)c(-c2ccc(Cl)c(Cl)c2)c1` had a pIC50 of 6.06.
The same measure for `Nc1ccc2[nH]cc(C3CCN(CC4CCN(C(=O)/C=C/c5ccc(Cl)c(Cl)c5)CC4)CC3)c2n1`: 6.15; for `COc1ccc(Nc2nccc(N3CCC(NC(=O)Nc4cc(C)ccc4C)C3)n2)cc1` (centres undefined): 6.05; for `NC(=O)C1CCN(Cc2ccc(-c3ccc(-c4nc5ccc(C(F)(F)F)cc5[nH]4)s3)cc2)CC1`: 6.27.
`CCCN(CCC)CCCOc1ccc(C(=O)c2c(-c3ccc(OCCCN(CCC)CCC)cc3)oc3ccc(Cl)cc23)cc1`: the pIC50 is 6.47.
The molecule `Nc1ccc2nc(C=Cc3ccc(Cl)cc3)[nH]c2c1` gave a pIC50 of 6.03.
In turn, `O=C1CCCN1CCCNCc1ccc(-c2ccc(-c3nc4ccc(C(F)(F)F)cc4[nH]3)s2)cc1` had a pIC50 of 6.42.
On to `CC(C)(C)c1ccc(N2C(N)=NC(N)=NC2(C)C)cc1`, for which the pIC50 is 7.52. This pIC50 is 1.10 log units higher than that of the molecule before.
Consider `S=C(NN=Cc1ccccn1)Nc1ccc2c(c1)OCCO2`, for which the pIC50 was 5.98.
The molecule `O=C(NC1CC1)c1ccc2cc(C(=O)N3Cc4ccccc4C(c4ccccc4)C3)ccc2c1` (centres undefined) showed a pIC50 of 6.04. This pIC50 and that of the molecule before are within 0.2 log units of each other.
Consider `Cn1nc(C(F)(F)F)c(-c2ccc(Br)cc2)c1NC(=O)Cc1ccccc1F`, for which the pIC50 is 6.80.
`CC(=O)c1ccccc1OCCSc1nnc(Cc2cccs2)n1C1CCCCC1` gave a pIC50 of 6.04.
`COc1cc(NC(=O)/C=C/c2cc(F)cc(F)c2F)cc(OCCN2CCCCC2)c1` showed a pIC50 of 6.82.
`CN(C)CCNCc1ccc(-c2ccc3c(Nc4ccc(Cl)cc4F)ccnc3c2)o1` had a pIC50 of 6.68.
`COc1ccc(NS(=O)(=O)c2ccc(C(=O)Nc3ccc(OC(F)(F)F)cc3)cc2)cc1N1CCN(CC2CC2)CC1` had a pIC50 of 6.00.
Consider `CCCc1cc(N2CCC(c3ccccc3)(N3CCCCC3)CC2)nc(Nc2ccc(OC)cc2)n1`, for which the pIC50 is 5.96.
With `O=C(CCC(=O)c1ccc2c3c(cccc13)CC2)NC1CCC(CN2CCC(c3c[nH]c4ccccc34)CC2)CC1` (centres undefined), the pIC50 was 6.04.
In the case of `CC(=O)c1ccc2c(c1)[C@H](NC(=O)c1cccc(Cl)c1Cl)[C@@H](CO)C(C)(C)O2`, the pIC50 is 6.16.
For `COc1ccc2nccc(N3CCC(SCCNCc4ccc5c(n4)NC(=O)CS5)C3)c2n1` (centres undefined), the pIC50 was 6.60. This pIC50 is 0.44 log units higher than that of the molecule before.
Molecule `CNC(=O)/C=C/c1cc(NC(=O)Nc2ccnc3c(Br)cccc23)ccc1OC` gave a pIC50 of 6.07.
In turn, `O=C(Nc1cccc(-c2ccc(-c3nc4ccccc4[nH]3)s2)c1)c1ccncc1` showed a pIC50 of 6.11.
